pEC50: −log10 of the molar value.
What was measured:
Ramos [1] = assay: Inhibition of Ramos B cells death in the presence of FK506 (1 uM); type: functional, Homo sapiens
Ramos [2] = assay: Lymphotoxic activity against immortalized Ramos B cells in culture; type: functional, cell-based; conditions: Homo sapiens
Ramos [3] = assay: Inhibition of Ramos B cells death in the presence of 20 uM methylating phenol (Compound 20); type: functional, Homo sapiens

Cc1ccc(C)c(CC2N=C(c3ccc(O)cc3)c3cc(Cl)ccc3N(C)C2=O)c1 (stereo unspecified)
Inhibition (Ramos [1]): 80%
pEC50 (Ramos [2]): 5.15
Inhibition (Ramos [3]): 23%

CN1C(=O)C(Cc2ccc3ncccc3c2)N=C(c2ccc(O)cc2)c2cc(Cl)ccc21 (stereo unspecified)
Inhibition (Ramos [1]): 20%
pEC50 (Ramos [2]): 4.89
Inhibition (Ramos [3]): 0%

CN1C(=O)CN=C(c2ccccc2)c2cc(Cl)ccc21 [DIAZEPAM]
pEC50 (Ramos [2]): < 4.10

CN1C(=O)C(Cc2ccccc2)N=C(c2ccc(O)cc2)c2cc(Cl)ccc21 (stereo unspecified)
Inhibition (Ramos [1]): 4%
pEC50 (Ramos [2]): 4.92
Inhibition (Ramos [3]): 0%

CN1C(=O)C(Cc2cccc3ccccc23)N=C(c2ccc(O)cc2)c2cc(Cl)ccc21 (stereo unspecified)
Inhibition (Ramos [1]): 72%
pEC50 (Ramos [2]): 5.30
Inhibition (Ramos [3]): 67%

CN1C(=O)C(Cc2ccc3ccccc3c2)N=C(c2ccc(Cl)cc2)c2cc(Cl)ccc21 (stereo unspecified)
pEC50 (Ramos [2]): < 4.10

CN1C(=O)C(Cc2cnc3ccccc3c2)N=C(c2ccc(O)cc2)c2cc(Cl)ccc21 (stereo unspecified)
Inhibition (Ramos [1]): 39%
pEC50 (Ramos [2]): 4.96
Inhibition (Ramos [3]): 4%

CN1C(=O)C(Cc2ccc3ccccc3c2)N=C(c2ccc(N=[N+]=[N-])cc2)c2cc(Cl)ccc21 (stereo unspecified)
pEC50 (Ramos [2]): < 4.10

CN1C(=O)C(Cc2ccc(C(C)(C)C)cc2)N=C(c2ccc(O)cc2)c2cc(Cl)ccc21 (stereo unspecified)
Inhibition (Ramos [1]): 91%
pEC50 (Ramos [2]): 5.52
Inhibition (Ramos [3]): 55%

CN1C(=O)C(Cc2ccc(F)c(F)c2)N=C(c2ccc(O)cc2)c2cc(Cl)ccc21 (stereo unspecified)
Inhibition (Ramos [1]): 59%
pEC50 (Ramos [2]): 5.00
Inhibition (Ramos [3]): 0%

CN1C(=O)C(Cc2cc3ccccc3cn2)N=C(c2ccc(O)cc2)c2cc(Cl)ccc21 (stereo unspecified)
Inhibition (Ramos [1]): 42%
pEC50 (Ramos [2]): 5.00
Inhibition (Ramos [3]): 0%

CN1C(=O)C(Cc2ccc(OC(F)(F)F)cc2)N=C(c2ccc(O)cc2)c2cc(Cl)ccc21 (stereo unspecified)
Inhibition (Ramos [1]): 17%
pEC50 (Ramos [2]): 4.52
Inhibition (Ramos [3]): 0%

CN1C(=O)C(Cc2cccc(O)c2)N=C(c2ccc(O)cc2)c2cc(Cl)ccc21 (stereo unspecified)
Inhibition (Ramos [1]): 14%
pEC50 (Ramos [2]): 4.66
Inhibition (Ramos [3]): 20%

CN1C(=O)CN=C(c2ccc(Cl)cc2)c2cc(Cl)ccc21 [RO-54864]
pEC50 (Ramos [2]): < 4.10

CN1C(=O)C(Cc2ccc(-c3ccccc3)cc2)N=C(c2ccc(O)cc2)c2cc(Cl)ccc21 (stereo unspecified)
Inhibition (Ramos [1]): 74%
pEC50 (Ramos [2]): 5.15
Inhibition (Ramos [3]): 69%

CN1C(=O)C(Cc2cccc(-c3ccccc3)c2)N=C(c2ccc(O)cc2)c2cc(Cl)ccc21 (stereo unspecified)
Inhibition (Ramos [1]): 77%
pEC50 (Ramos [2]): 5.40
Inhibition (Ramos [3]): 81%

COc1ccc(C2=NC(Cc3ccc4ccccc4c3)C(=O)N(C)c3ccc(Cl)cc32)cc1 (stereo unspecified)
pEC50 (Ramos [2]): < 4.10

CN1C(=O)C(Cc2ccc3ccccc3c2)N=C(c2cccc(O)c2)c2cc(Cl)ccc21 (stereo unspecified)
Inhibition (Ramos [1]): 70%
pEC50 (Ramos [2]): 5.22
Inhibition (Ramos [3]): 0%

Cc1ccc(CC2N=C(c3ccc(O)cc3)c3cc(Cl)ccc3N(C)C2=O)cc1C (stereo unspecified)
Inhibition (Ramos [1]): 78%
pEC50 (Ramos [2]): 5.15
Inhibition (Ramos [3]): 29%

CCC(C)N(C)C(=O)c1cc2ccccc2c(-c2ccccc2Cl)n1 (stereo unspecified) [PK-11195]
pEC50 (Ramos [2]): < 4.10

Cc1cc(C2=NC(Cc3ccc4ccccc4c3)C(=O)N(C)c3ccc(Cl)cc32)ccc1O (stereo unspecified)
Inhibition (Ramos [1]): 78%
pEC50 (Ramos [2]): 5.52
Inhibition (Ramos [3]): 87%
